Reference: patent publication US20230278972A1, “SUBSTITUTED HALOALKYL SULFONANILIDE HERBICIDES” (FMC Corporation, priority 2020, published 2023)

Key:
Type in all cases: in vivo
[1] = tested on: ragweed (common ragweed, Ambrosia artemisiifolia); assay: Test A preemergence, ragweed; details: Preemergence; for Ragweed plant response rating: 125 g ai/ha, visual injury on 0 to 100 scale (0 no effect, 100 complete control), approximately 10 days; for Plant response rating, Ragweed: 500 g ai/ha, 0 to 100 scale (0 no effect, 100 complete control)
Text: (§1) Seeds of plant species selected from barnyardgrass (Echinochloa crus-galli), kochia (Bassia scoparia), ragweed (common ragweed, Ambrosia artemisiifolia), Ryegrass, Italian (Italian ryegrass, Lolium multiflorum), Foxtail, Giant (giant foxtail, Setaria faberi), and pigweed (Amaranthus retroflexus) were planted into a blend of loam soil and sand and treated preemergence with a directed soil spray using test chemicals formulated in a non-phytotoxic solvent mixture which included a surfactant. At the same time, plants selected from these weed species and also wheat (Triticum aestivum), corn (Zea mays), blackgrass (Alopecurus myosuroides), and galium (catchweed bedstraw, Galium aparine) were planted in pots containing the same blend of loam soil and sand and treated with postemergence applications of test chemicals formulated in the same manner. Plants ranged in height from 2 to 10 cm and were in the one- to two-leaf stage for the postemergence treatment. […] A dash (-) response means no test result.

kochia (Bassia scoparia) [2] = assay: Test A postemergence, kochia; details: Postemergence, 0 to 100 scale (0 no effect, 100 complete control); for Plant response rating, Kochia: 125 g ai/ha; for Kochia plant response rating: 500 g ai/ha, visual injury vs untreated controls after approx. 10 days
Text: as §1

[3] = tested on: ragweed (common ragweed, Ambrosia artemisiifolia); assay: Test A postemergence, ragweed; details: Postemergence, 0 to 100 scale (0 no effect, 100 complete control); for Plant response rating, Ragweed: 125 g ai/ha; for Ragweed plant response rating: 500 g ai/ha, visual injury vs untreated controls after approx. 10 days
Text: as §1

[4] = tested on: Ryegrass, Italian (Italian ryegrass, Lolium multiflorum); assay: Test A postemergence, Ryegrass, Italian; details: Postemergence, 0 to 100 scale (0 no effect, 100 complete control); for Plant response rating, Ryegrass, Italian: 125 g ai/ha; for Ryegrass, Italian plant response rating: 500 g ai/ha, visual injury vs untreated controls after approx. 10 days
Text: as §1

[5] = tested on: Ryegrass, Italian (Italian ryegrass, Lolium multiflorum); assay: Test A preemergence, Ryegrass, Italian; details: Preemergence; for Ryegrass, Italian plant response rating: 125 g ai/ha, visual injury on 0 to 100 scale (0 no effect, 100 complete control), approximately 10 days; for Plant response rating, Ryegrass, Italian: 500 g ai/ha, 0 to 100 scale (0 no effect, 100 complete control)
Text: as §1

[6] = tested on: pigweed (Amaranthus retroflexus); assay: Test A postemergence, pigweed; details: Postemergence, 0 to 100 scale (0 no effect, 100 complete control); for Plant response rating, Pigweed: 125 g ai/ha; for Pigweed plant response rating: 500 g ai/ha, visual injury vs untreated controls after approx. 10 days
Text: as §1

[7] = tested on: barnyardgrass (Echinochloa crus-galli); assay: Test A preemergence, barnyardgrass; details: Preemergence; for Barnyardgrass plant response rating: 125 g ai/ha, visual injury on 0 to 100 scale (0 no effect, 100 complete control), approximately 10 days; for Plant response rating, Barnyardgrass: 500 g ai/ha, 0 to 100 scale (0 no effect, 100 complete control)
Text: as §1

[8] = tested on: galium (catchweed bedstraw, Galium aparine); assay: Test A postemergence, galium; details: Postemergence, 0 to 100 scale (0 no effect, 100 complete control); for Plant response rating, Galium: 125 g ai/ha; for Galium plant response rating: 500 g ai/ha, visual injury vs untreated controls after approx. 10 days
Text: as §1

[9] = tested on: blackgrass (Alopecurus myosuroides); assay: Test A postemergence, blackgrass; details: Postemergence, 0 to 100 scale (0 no effect, 100 complete control); for Plant response rating, Blackgrass: 125 g ai/ha; for Blackgrass plant response rating: 500 g ai/ha, visual injury vs untreated controls after approx. 10 days
Text: as §1

corn (Zea mays) = assay: Test A postemergence, corn; details: Postemergence, 0 to 100 scale (0 no effect, 100 complete control); for Plant response rating, Corn: 125 g ai/ha; for Corn plant response rating: 500 g ai/ha, visual injury vs untreated controls after approx. 10 days
Text: as §1

[10] = tested on: Foxtail, Giant (giant foxtail, Setaria faberi); assay: Test A postemergence, Foxtail, Giant; details: Postemergence, 0 to 100 scale (0 no effect, 100 complete control); for Plant response rating, Foxtail, Giant: 125 g ai/ha; for Foxtail, Giant plant response rating: 500 g ai/ha, visual injury vs untreated controls after approx. 10 days
Text: as §1

kochia (Bassia scoparia) [11] = assay: Test A preemergence, kochia; details: Preemergence; for Kochia plant response rating: 125 g ai/ha, visual injury on 0 to 100 scale (0 no effect, 100 complete control), approximately 10 days; for Plant response rating, Kochia: 500 g ai/ha, 0 to 100 scale (0 no effect, 100 complete control)
Text: as §1

[12] = tested on: wheat (Triticum aestivum); assay: Test A postemergence, wheat; details: Postemergence, 0 to 100 scale (0 no effect, 100 complete control); for Plant response rating, Wheat: 125 g ai/ha; for Wheat plant response rating: 500 g ai/ha, visual injury vs untreated controls after approx. 10 days
Text: as §1

[13] = tested on: barnyardgrass (Echinochloa crus-galli); assay: Test A postemergence, barnyardgrass; details: Postemergence, 0 to 100 scale (0 no effect, 100 complete control); for Plant response rating, Barnyardgrass: 125 g ai/ha; for Barnyardgrass plant response rating: 500 g ai/ha, visual injury vs untreated controls after approx. 10 days
Text: as §1

[14] = tested on: Foxtail, Giant (giant foxtail, Setaria faberi); assay: Test A preemergence, Foxtail, Giant; details: Preemergence; for Foxtail, Giant plant response rating: 125 g ai/ha, visual injury on 0 to 100 scale (0 no effect, 100 complete control), approximately 10 days; for Plant response rating, Foxtail, Giant: 500 g ai/ha, 0 to 100 scale (0 no effect, 100 complete control)
Text: as §1

Row | SMILES | Ragweed plant response rating [1] | Plant response rating, Ragweed [1] | Kochia plant response rating (kochia (Bassia scoparia) [2]) | Ragweed plant response rating [3] | Ryegrass, Italian plant response rating [4] | Ryegrass, Italian plant response rating [5] | Plant response rating, Ryegrass, Italian [5] | Pigweed plant response rating [6] | Barnyardgrass plant response rating [7] | Plant response rating, Barnyardgrass [7] | Galium plant response rating [8] | Blackgrass plant response rating [9] | Corn plant response rating (corn (Zea mays)) | Foxtail, Giant plant response rating [10] | Kochia plant response rating (kochia (Bassia scoparia) [11]) | Plant response rating, Kochia (kochia (Bassia scoparia) [11]) | Wheat plant response rating [12] | Barnyardgrass plant response rating [13] | Foxtail, Giant plant response rating [14] | Plant response rating, Foxtail, Giant [14] | further results
1 | Cc1cc(C)c(N(S(=O)(=O)C(F)(F)F)S(=O)(=O)C(F)(F)F)cc1C1=NOC2(CCSCC2)C1 [Compound 114] | 0 | 10 | 40 | 30 | 40 | 70 | 90 | 80 | 50 | 80 | 90 | 50 | 50 | 80 | 30 | 70 | 60 | 70 | 90 | 100 | Plant response rating, Kochia (kochia (Bassia scoparia) [2]; visual injury approx. 10 days): 10; Plant response rating, Ragweed ([3]; visual injury approx. 10 days): 0; Plant response rating, Ryegrass, Italian ([4]; visual injury approx. 10 days): 40; Plant response rating, Pigweed ([6]; visual injury approx. 10 days): 60; Plant response rating, Galium ([8]; visual injury approx. 10 days): 90; Plant response rating, Blackgrass ([9]; visual injury approx. 10 days): 30; Plant response rating, Corn (corn (Zea mays); visual injury approx. 10 days): 20; Plant response rating, Foxtail, Giant ([10]; visual injury approx. 10 days): 50; Plant response rating, Wheat ([12]; visual injury approx. 10 days): 60; Plant response rating, Barnyardgrass ([13]; visual injury approx. 10 days): 20
2 | Cc1c(NS(=O)(=O)C(F)(F)F)cc(C(=O)N2CC(C)OC(C)C2)c(C)c1F (stereo not shown) [Compound 116] | 10 | 100 | 70 | 90 | 80 | 40 | 90 | 80 | 30 | 90 | 90 | 40 | 80 | 80 | 90 | 100 | 80 | 90 | 60 | 90 | Plant response rating, Kochia (kochia (Bassia scoparia) [2]; visual injury approx. 10 days): 30; Plant response rating, Ragweed ([3]; visual injury approx. 10 days): 90; Plant response rating, Ryegrass, Italian ([4]; visual injury approx. 10 days): 60; Plant response rating, Pigweed ([6]; visual injury approx. 10 days): 60; Plant response rating, Galium ([8]; visual injury approx. 10 days): 90; Plant response rating, Blackgrass ([9]; visual injury approx. 10 days): 0; Plant response rating, Corn (corn (Zea mays); visual injury approx. 10 days): 0; Plant response rating, Foxtail, Giant ([10]; visual injury approx. 10 days): 0; Plant response rating, Wheat ([12]; visual injury approx. 10 days): 60; Plant response rating, Barnyardgrass ([13]; visual injury approx. 10 days): 50
3 | COC1CCN(C(=O)c2cc(N(S(=O)(=O)C(F)(F)F)S(=O)(=O)C(F)(F)F)c(C)cc2C)C1 (stereo not shown) [Compound 138] | – | – | – | – | – | – | – | – | – | – | – | – | – | – | – | – | – | – | – | – | Plant response rating, Ragweed [3]: 30; Plant response rating, Ryegrass, Italian [4]: 0; Plant response rating, Pigweed [6]: 90; Plant response rating, Wheat [12]: 30
4 | COC1CCCN(C(=O)c2cc(NS(=O)(=O)C(F)(F)F)c(Cl)cc2C)C1 (stereo not shown) [Compound 146] | 60 | 70 | 50 | 90 | 70 | 90 | 100 | 80 | 90 | 100 | 90 | 20 | 20 | 90 | 80 | 80 | 60 | 80 | 100 | 100 | Plant response rating, Kochia (kochia (Bassia scoparia) [2]): 40; Plant response rating, Ragweed [3]: 60; Plant response rating, Ryegrass, Italian [4]: 30; Plant response rating, Pigweed [6]: 50; Plant response rating, Galium [8]: 90; Plant response rating, Blackgrass [9]: 0; Plant response rating, Corn (corn (Zea mays)): 10; Plant response rating, Foxtail, Giant [10]: 20; Plant response rating, Wheat [12]: 50; Plant response rating, Barnyardgrass [13]: 40
